Assay results taken from patent US5162571A, “Phenol derivatives, their production and use” (Takeda Chemical Industries, Ltd., priority 1987, dated 1992).
Blank lines part the entries; values can stand above or below the molecule they belong to.

Legend:
[1] = system: lipid peroxides production in rat brain homogenates; assay: Inhibitory action on lipid peroxides production in rat brain homogenates; format: biochemical; settings: 10^-5 M
Description: Inhibitory action on lipid peroxides production in rat brain homogenates
Method: The male SD rat brain tissue was used as 5% homogenate in phosphate-buffered solution. After incubation of the homogenate for 1 hour at 37° C., the amount of lipid peroxides produced was determined by the thiobarbituric acid method according to the description of Ohkawa et al. (Analytical Biochemistry, 95: 551, 1979)
Test compounds were used as a solution of dimethylsulfoxide. The inhibitory action on lipid peroxide production was expressed as a % inhibition as compared with the amount of production in the vehicle group.

[2] = target: T1, specific [^3 H] U-46619 binding to guinea pig platelet membrane (Cavia porcellus, UniProt A0A286Y4I8); assay: Inhibition of specific [^3 H] U-46619 binding to guinea pig platelet membrane; settings: [^3 H] U-46619, 25° C., 30 min; read-out: IC50 (Concentration for 50% inhibition)
T1 construct: Platelet membranes were prepared according to the following procedure; from tissue; host or cells: guinea pig platelet membranes
T1 sequence (A0A286Y4I8 1-347): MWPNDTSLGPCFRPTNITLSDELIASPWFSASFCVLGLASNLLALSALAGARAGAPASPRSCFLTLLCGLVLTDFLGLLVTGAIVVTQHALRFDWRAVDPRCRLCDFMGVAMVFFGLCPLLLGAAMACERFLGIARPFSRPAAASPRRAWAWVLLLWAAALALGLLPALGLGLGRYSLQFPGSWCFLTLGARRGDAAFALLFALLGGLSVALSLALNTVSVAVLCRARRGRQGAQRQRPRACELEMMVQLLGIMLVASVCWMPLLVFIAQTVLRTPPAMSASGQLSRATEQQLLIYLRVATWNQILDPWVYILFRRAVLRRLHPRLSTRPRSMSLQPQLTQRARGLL
Description: Inhibition of specific [^3 H] U-46619 binding to guinea pig platelet membrane
Method: Blood from normal guinea pig was collected into 0.315% citrate solution containing aspirin (final concentration 1 mM) and was centrifuged at 3000 r.p.m. for […]. The PRP (platelet rich plasma) was centrifuged at 4800 r.p.m for 10 min. at 4° C. Platelet membranes were prepared according to the following procedure: In order to remove the residual plasma protein, the platelet pellet was washed once with 30 ml of buffer containing 25 mM Tris-HCl/5 mM MgCl2 (pH 7.4) and recentrifuged to pellet the platelets. The platelets were then resuspended in 20 ml of the same buffer, and the cells were disrupted by sonication. The sonication was performed on ice using a Kontes Sonicator (Vineland, N.J.). The platelets were sonicated for a total of 90 sec. with a 15 sec. burst followed by a 15 sec. intermission. The sonicated mixture was centrifuged at 100,000×g for 1 hour and the membrane fraction was suspended in the same buffer. The protein concentration was adjusted to 1 mg/ml.
The binding assay was performed at 25° C. for 30 min. One ml of the resuspended membrane fraction was incubated with […] of [^3 H] U-46619. The incubation mixture was filtered through a glass fiber membrane (GF/C, whatman) to separate the membrane bound from free [^3 H] U-46619. The membranes were quickly washed twice with 5 ml of cold buffer, mixed with 4 ml of ACS scintillation fluid and counted for [^3 H] U-46619.

[3] = target: T2, Thromboxane A2 (TXA2) receptor (Oryctolagus cuniculus, UniProt Q6WQI8); assay: Thromboxane A2 (TXA2) receptor antagonism: inhibitory effect on contraction of rabbit aorta by TXA2-mimics; format: cell-based; settings: for inhibition at 10 µM: 10^-5 M; for inhibition at 1 µM: 10^-6 M; for inhibition at 0.1 µM: 10^-7 M
T2 construct: contraction by TXA2 mimics U-44069 or U-46619
T2 sequence (Q6WQI8 1-233): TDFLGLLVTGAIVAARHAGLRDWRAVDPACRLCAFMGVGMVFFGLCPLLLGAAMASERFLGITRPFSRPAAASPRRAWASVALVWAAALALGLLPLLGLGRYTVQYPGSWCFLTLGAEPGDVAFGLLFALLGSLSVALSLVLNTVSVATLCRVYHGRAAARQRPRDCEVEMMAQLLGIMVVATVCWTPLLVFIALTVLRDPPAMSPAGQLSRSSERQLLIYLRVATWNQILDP
Description: Thromboxane A2 (TXA2) receptor antagonism
Inhibitory effect on contraction of rabbit aorta by thromboxan A2 (TXA2)-mimics
Method: A spiral strip of the rabbit aorta (2-3 mm wide, about 3 cm long) was suspended in Krebs-Henseleit solution under the load of 2 g. The Krebs-Henseleit solution was saturated with a mixed gas of 95%O2 -5%CO2 and warmed at 37° C. Inhibition of the contraction of the vascular strip caused by a TXA2 mimic substance U-44069^1) (10^-7 M) or U-46619^2) (3×10 ^-8 M), by pretreatment with Compound No. 13 30 minutes before was studied.
1) U-44069: (5Z, 9α, 11α, 13E, 15S)-15-hydroxy-9,11-(epoxymethano)-prosta-5,13-dienoic acid (manufacturedby The Upjohn Company in U.S.A.)
2) U-46619: (5Z, 9α, 11α, […], 15S)-15-hydroxy-11,9-(epoxymethano)-prosta-5,13-dienoic acid (manufacturedby Cayman Chemical Company)
In Table 5, "*" represents addition of U-46619.

[4] = system: U-46619 (TXA2 mimic)-induced broncho-constriction; assay: Inhibitory effect on U-46619 (TXA2 mimic)-induced broncho-constriction in guinea pig; format: in vivo; settings: Cavia porcellus, ** p < 0.01; for inhibition in vivo at 5 mg/kg: 5 mg/kg p.o.
Description: Inhibitory effect on U-46619 (TXA2 mimic)-induced broncho-constrictionin guinea pig
Method: Eight male Hartley guinea pigs were used per one group. The guinea pig anesthetized with urethane (1.5 g/kg, i.p.) was fixed in a dorsal position, subjected to tracheotomy and connected to a respirator through a cannula. A side branch of the tracheal cannula was connected to a respirator (Harvard apparatus rodent respirator Type 680) at the rate of 70 strokes/min. and a constant volume of 3 to 5 ml.
Inflation pressure was kept constant at 10 cm H2 O.
After treatment with gallamine triethiodide (1 mg/kg, i.v.), U-46619 (10 μg/Kg) dissolved in a physiological saline solution was given through a carotid cannula and the airway resistance was measured by the overflow technique of Konzett-Rossler method (Konzett, H. and Rossler, R., Naunyn-Schmiedegerg's Arch, Exp. Path. Pharmak., 195, 71-74 (1940). A test compound was suspended in 5% gum arabic solution and was administered orally 1 hour before the treatment with U-46619.
Alternatively, a test compound was dissolved in aqueous 50% dimethylsulfoxide solution and administered interveneously in the dosage of 0.1 ml/100 g body weight 9 minutes before the treatment of U-46619.

[5] = target: T3, 5-Lipoxygenase (Rattus norvegicus, UniProt P12527); assay: 5-Lipoxygenase inhibitory activity (5-HETE production in RBL-1 cells); format: cell-based; settings: read-out: Inhibitory effect on 5-HETE production (%); for inhibition at 10 µM: 10^-5 M; for inhibition at 1 µM: 10^-6 M; for inhibition at 0.1 µM: 10^-7 M
T3 construct: RBL-1 cells (rat basophilic leukemia cells); endogenous in cells; host or cells: RBL-1 (rat basophilic leukemia cells)
T3 sequence (P12527 1-673): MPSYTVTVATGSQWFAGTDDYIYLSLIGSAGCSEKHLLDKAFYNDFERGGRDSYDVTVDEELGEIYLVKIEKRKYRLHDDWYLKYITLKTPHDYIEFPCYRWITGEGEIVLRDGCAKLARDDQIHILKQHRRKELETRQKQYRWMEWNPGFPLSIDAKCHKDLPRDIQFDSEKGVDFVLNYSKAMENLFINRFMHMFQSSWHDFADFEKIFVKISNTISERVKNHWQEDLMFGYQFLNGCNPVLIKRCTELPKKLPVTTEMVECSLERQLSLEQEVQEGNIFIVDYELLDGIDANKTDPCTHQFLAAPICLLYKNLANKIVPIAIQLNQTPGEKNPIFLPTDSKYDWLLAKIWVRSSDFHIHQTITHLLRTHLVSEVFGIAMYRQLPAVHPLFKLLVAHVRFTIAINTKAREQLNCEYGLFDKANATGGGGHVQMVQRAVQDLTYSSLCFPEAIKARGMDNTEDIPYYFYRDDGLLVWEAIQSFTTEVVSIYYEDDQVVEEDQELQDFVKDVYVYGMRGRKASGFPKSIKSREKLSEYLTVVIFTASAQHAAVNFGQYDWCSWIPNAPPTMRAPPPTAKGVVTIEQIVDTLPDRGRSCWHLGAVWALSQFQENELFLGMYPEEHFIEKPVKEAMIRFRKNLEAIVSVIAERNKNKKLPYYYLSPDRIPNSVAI
Description: 5-Lipoxygenase inhibitory activity
Method: 10^7 RBL-1 cells (rat basophilic leukemia cells) were suspended in 0.5 ml of MCM (mast cell medium), and test solutions (made up of 0.5 ml of MCM, 50 μg of arachidonic acid, 10 μg of A-23187 (calcium ionophore) and 1 μM, 0.01 μM and 0.001 μM as the final concentration of the phenol compound, respectively) prepared previously were added respectively to the suspension, followed by reaction at 37° C. for 20 minutes. After the conclusion of the reaction, 4 ml of ethanol and 1,4-dimethoxy-2-methyl-3-(3-methoxypropyl)naphthalene as the internal reference drug were added to the reaction solution, and the mixture was shaken thoroughly and allowed to stand at room temperature for 10 minutes. Then, it was centrifuged (2000 r.p.m.) for 10 minutes, and the supernatant fluid was separated and concentrated to dryness under reduced pressure. 0.5 ml of 60% aqueous methanol was added to the concentrate, and 100 μl of the resulting solution was taken and subjected to high-performance liquid chromatography to determine the amount of 5-HETE (5-hydroxy-eicosatetraenoic acid). Determination of 5-HETE was made through measurement of an absorption at 237 nm with a UV absorption monitor.
The 5-HETE production inhibitory effect (IE) was expressed by [formula] wherein a is a peak height or peak area corrected by the peak for the internal reference when the phenol compound is not contained; b is a peak height or peak area corrected by the peak for the internal reference when the phenol compound is contained.

[6] = U-44069 (10^-7 M)-induced contraction
[7] = iv, 1.25 mg/kg i.v., 9 minutes before U-46619
[8] = addition of U-46619 (3×10^-8 M) (*)
[9] = po, 0.31 mg/kg p.o., 1 hour before U-46619

Compound: Cc1cc(C)c(O)c(C(CCCCCCO)c2ccccc2)c1C (stereo not drawn) [Compound 5, 7-(2-hydroxy-3,5,6-trimethylphenyl)-7-phenylheptanol]
Inhibition (%) [1]: 100%

Compound: CCCCCCC(c1ccc(F)cc1)c1c(C)c(C)cc(C)c1O (stereo not drawn) [Compound 6]
Inhibition (%) [1]: 100%

Compound: Cc1c(C)c(C)c(C(CCCCCC(=O)O)c2ccc(F)cc2)c(O)c1C (stereo not drawn) [Compound 9]
IC50 [2]: 130 nM
inhibition at 10 µM [3, 6]: 100%
inhibition at 1 µM [3, 6]: 27%
inhibition in vivo at 0.31 mg/kg ([4]; iv, 0.31 mg/kg i.v., 9 minutes before U-46619): 65%
Inhibition (%) [1]: 100%

Compound: Cc1c(C)c(Cl)c(C)c(C(CCCCCC(=O)O)c2ccc(F)cc2)c1O (stereo not drawn) [Compound 17]
IC50 [2]: 840 nM
inhibition at 1 µM [3, 6]: 98%
inhibition at 0.1 µM [3, 6]: 12%
inhibition in vivo at 1.25 mg/kg [4, 7]: 71%

Compound: Cc1c(C)c(Cc2ccccc2)c(C)c(C(CCCCCC(=O)O)c2ccc(F)cc2)c1O (stereo not drawn) [Compound 19]
IC50 [2]: 160 nM

Compound: Cc1c(C)c(Cc2ccc(F)cc2)c(C)c(C(CCCCCC(=O)O)c2ccc(F)cc2)c1O (stereo not drawn) [Compound 20]
Inhibition (%) [1]: 74.5%

Continued, in another order:

IC50 [2]: 160 nM
inhibition at 10 µM [3, 6]: 100%
inhibition at 1 µM [3, 6]: 45%
Compound: Cc1c(C)c2c(c(C(CCCCCC(=O)O)c3ccc(F)cc3)c1O)CCC2 (stereo not drawn) [Compound 22]
inhibition in vivo at 1.25 mg/kg [4, 7]: 43%
inhibition in vivo at 5 mg/kg ([4]; po, 1 hour before U-46619): 83%

IC50 [2]: 32 nM
inhibition at 1 µM [3, 8]: 100%
inhibition at 0.1 µM [3, 8]: 95%
Compound: Cc1c(C)c(CO)c(C)c(C(CCCCCC(=O)O)c2ccc(F)cc2)c1O (stereo not drawn) [Compound 32, 7-(4-fluorophenyl)-7-(6-hydroxy-3-hydroxymethyl-2,4,5-trimethylphenyl)heptanoic acid]
inhibition in vivo at 0.31 mg/kg [4, 9]: 57%

IC50 [2]: 80 nM
inhibition at 1 µM [3, 8]: 98%
inhibition at 0.1 µM [3, 8]: 23%
Compound: CC(=O)c1c(C)c(C)c(O)c(C(CCCCCC(=O)O)c2ccc(F)cc2)c1C (stereo not drawn) [Compound 35, 7-(3-acetyl-6-hydroxy-2,4,5-trimethylphenyl)-7-(4-fluorophenyl)heptanoic acid]
inhibition in vivo at 5 mg/kg ([4]; po, 1 hour before U-46619): 76%

IC50 [2]: 13 nM
inhibition at 0.1 µM [3, 8]: 100%
Compound: Cc1c(C)c2c(c(C(CCCCCC(=O)O)c3ccc(F)cc3)c1O)CCC2=O (stereo not drawn) [Compound 37, 7-(6,7-dimethyl-5-hydroxy-1-oxoindan-4-yl)-7-(4-fluorophenyl)heptanoic acid]
inhibition in vivo at 1.25 mg/kg ([4]; po, 1.25 mg/kg p.o., 1 hour before U-46619): 59%

IC50 [2]: 14 nM
inhibition at 0.1 µM [3, 8]: 96%
Compound: C=CCON=Cc1c(C)c(C)c(O)c(C(CCCCCC(=O)O)c2ccc(F)cc2)c1C (stereo not drawn) [Compound 52]
inhibition in vivo at 0.31 mg/kg [4, 9]: 36%

inhibition at 10 µM [5]: 93%
inhibition at 1 µM [5]: 93%
inhibition at 0.1 µM [5]: 66%
Compound: CC(C)(C)c1cc(O)c(O)c(C(CCCCCC(=O)O)c2ccccc2)c1 (stereo not drawn) [Compound 56]
Inhibition (%) [1]: 100%

inhibition at 10 µM [5]: 100%
inhibition at 1 µM [5]: 90%
inhibition at 0.1 µM [5]: 27%
Compound: Cc1cc(O)c(O)c(C(CCCCCC(=O)O)c2ccc(F)cc2)c1C (stereo not drawn) [Compound 57, 7-(4-fluorophenyl)-7-(2,3-dihydroxy-5,6-dimethylphenyl)heptanoic acid]
